The values below come from paper PMC10051798, “Thiosemicarbazide Derivatives Targeting Human TopoIIα and IDO-1 as Small-Molecule Drug Candidates for Breast Cancer Treatment” (International Journal of Molecular Sciences, 2023).

≈ marks a conversion by molar mass, not a printed value. Where “and” joins values, the source holds several entries; their conditions need not be identical. Equal entries are not always repeated.

In series [1] the test system is MCF-10A cells. The series can be described thus: MTT viability assay, normal breast epithelial cells. It is filed as cell-based, human. The note with it: for IC50: Homo sapiens, MCF-10A, MTT, 24 h; for SIMCF-7 (selectivity index): IC50 MCF-10A/IC50 MCF-7; for SIMDA-MB-231 (selectivity index): IC50 MCF-10A/IC50 MDA-MB-231. As for the experimental part:
Human breast cancer cells, i.e., MCF-7 (estrogen-dependent breast cancer cells) and MDA-MB-231 (estrogen-independent breast cancer cells), as well as normal human breast epithelial cells (MCF-10A) were purchased from the American Type Culture Collection (ATCC, Manassas, VA, USA). MCF-7 and MDA-MB-231 cells were cultured in DMEM (Sigma Aldrich, St. Louis, MO, USA) supplemented with 10% fetal bovine serum (FBS), penicillin (100 U/mL) and streptomycin (100 μg/mL). MCF-10A cells were cultured in Mammary Epithelial Cell Growth Medium supplemented with BPE, hEGF, insulin, hydrocortisone, GA-1000 (Lonza, Basel, Switzerland), 10% fetal bovine serum (FBS), penicillin (100 U/mL) and streptomycin (100 μg/mL). The cells were grown in T25 Cell Culture EasyFlask (Nunc, Roskilde, Denmark) at 37 °C in a humidified atmosphere of 5% CO2.
MTT assays were performed to evaluate the cytotoxic activity of the investigated compounds (1–3) against MCF-10A cells. Asuspension of cells (1 × 10^5 cells/mL) was distributed onto 96-well plates at a volume of 100 μL/well. After attachment, the cells were treated with increased concentrations of the tested compounds in medium containing 2% FBS, and incubated for 24 h. Then, 15 μL of MTT working solution (5 mg/mL in PBS) was added to each well and the plates were incubated for 3 h. Subsequently, 100 μL of 10% SDS solution was added to each well in order to dissolve the formazan formed. After overnight incubation at 37 °C, the absorbance of the obtained solution was measured at λ= 570 nm using a microplate reader (Epoch, BioTek Instruments, Inc., Winooski, VT, USA). At least two independent experiments were performed in triplicate. IC50 values of the tested compounds were calculated using the IC50 online calculator [27].

In series [2] the target is T1, MDR1 (p-glycoprotein) in MCF-7 cells (Homo sapiens, UniProt P08183).
T1 construct: endogenous in cells; host or cells: MCF-7 and MDA-MB-231 cells
The series can be described thus: MDR transporter activity assay, MDR1 in MCF-7. It is filed as cell-based. The conditions noted are these: MCF-7, 10 µg/mL, 24 h. The protocol:
(§1) An MDR Assay kit (Abcam, Cambridge, UK) was used following the manufacturer’s instructions. MCF-7 and MDA-MB-231 cells were incubated with compounds 1–3 (10 μg/mL and 20 μg/mL). After 24 h of incubation, the test cells were washed twice with 5 mL of PBS by centrifugation at 1200 rpm for 10 min. The supernatants were discarded and the cells were counted using a Scepter 3.0 handheld automated cell counter (Milipore, Burlington, MA, USA). Then, each of the tested samples was divided into three parts and analyzed. Tomeasure the activity of MDR1, MRP1 and BCRP (tubes 1–12), 5 μL of verapamil (MDR1 inhibitor) was added into tubes 1–3, 5 μL of MK-571 (MRP1 inhibitor) was added into tubes 4–6, 5 μL of noviobiocin (BCRP inhibitor) was added into tubes 7–9 and 125 μL DMEM with 1 μL of DMSO was added into tubes 10–12. Then, the samples were incubated at 37 °C for five minutes. After this time, 125 μL of Efflux Green Detection Reagent was added into tubes 1–12 and the samples were incubated for 30 min at 37 °C. After 25 min of incubation, 5 μL of PI was added to each tube. Thereafter, the samples were centrifuged for 10 min at 1200 rpm. The supernatants were discarded and the cells were resuspended in 500 μL of PBS and run on the flow cytometer immediately. Measurements were conducted on a BD FACSCanto II flow cytometer using FACSDiva software (version 6.1.3, BD Biosciences, San Diego, CA, USA). […]

In series [3] the test system is MRP1/2 in MCF-7 cells. The series can be described thus: MDR transporter activity assay, MRP in MCF-7. Type of series: cell-based, human. The note with it: MCF-7, 10 µg/mL, 24 h. The protocol: as §1
The target of series [4] is T2, BCRP in MCF-7 cells (Homo sapiens, UniProt Q9UNQ0).
T2 construct: endogenous in cells; host or cells: MCF-7 and MDA-MB-231 cells
T2 sequence (Q9UNQ0 1-655): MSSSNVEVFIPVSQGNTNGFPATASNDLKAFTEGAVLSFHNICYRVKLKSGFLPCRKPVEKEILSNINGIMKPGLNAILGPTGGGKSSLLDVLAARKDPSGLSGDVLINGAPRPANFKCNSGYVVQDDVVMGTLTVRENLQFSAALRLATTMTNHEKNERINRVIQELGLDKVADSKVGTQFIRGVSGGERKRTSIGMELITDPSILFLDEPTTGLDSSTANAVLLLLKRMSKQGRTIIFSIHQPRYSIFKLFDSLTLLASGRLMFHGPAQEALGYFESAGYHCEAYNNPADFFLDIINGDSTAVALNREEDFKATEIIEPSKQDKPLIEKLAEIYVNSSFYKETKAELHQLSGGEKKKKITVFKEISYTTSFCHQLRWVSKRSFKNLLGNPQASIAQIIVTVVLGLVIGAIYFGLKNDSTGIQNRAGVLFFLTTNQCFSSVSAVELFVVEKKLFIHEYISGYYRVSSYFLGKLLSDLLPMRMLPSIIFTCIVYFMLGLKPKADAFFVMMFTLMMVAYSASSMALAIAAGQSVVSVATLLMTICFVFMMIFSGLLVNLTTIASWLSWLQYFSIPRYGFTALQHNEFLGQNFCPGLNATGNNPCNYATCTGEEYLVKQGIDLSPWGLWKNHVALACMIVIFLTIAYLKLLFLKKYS
Put plainly: MDR transporter activity assay, BCRP in MCF-7. The note with it: MCF-7, 10 µg/mL, 24 h. It is filed as cell-based. As for the experimental part:
as §1

In series [5] the target is T3, MDR1 (p-glycoprotein) in MDA-MB-231 cells (Homo sapiens, UniProt P08183).
T3 construct: endogenous in cells; host or cells: MCF-7 and MDA-MB-231 cells
The series can be described thus: MDR transporter activity assay, MDR1 in MDA-MB-231. Type of series: cell-based. The conditions noted are these: 24 h. As for the experimental part: (§2) An MDR Assay kit (Abcam, Cambridge, UK) was used following the manufacturer’s instructions. MCF-7 and MDA-MB-231 cells were incubated with compounds 1–3 (10 μg/mL and 20 μg/mL). After 24 h of incubation, the test cells were washed twice with 5 mL of PBS by centrifugation at 1200 rpm for 10 min. The supernatants were discarded and the cells were counted using a Scepter 3.0 handheld automated cell counter (Milipore, Burlington, MA, USA). Then, each of the tested samples was divided into three parts and analyzed. Tomeasure the activity of MDR1, MRP1 and BCRP (tubes 1–12), 5 μL of verapamil (MDR1 inhibitor) was added into tubes 1–3, 5 μL of MK-571 (MRP1 inhibitor) was added into tubes 4–6, 5 μL of noviobiocin (BCRP inhibitor) was added into tubes 7–9 and 125 μL DMEM with 1 μL of DMSO was added into tubes 10–12. Then, the samples were incubated at 37 °C for five minutes. After this time, 125 μL of Efflux Green Detection Reagent was added into tubes 1–12 and the samples were incubated for 30 min at 37 °C. After 25 min of incubation, 5 μL of PI was added to each tube. Thereafter, the samples were centrifuged for 10 min at 1200 rpm. The supernatants were discarded and the cells were resuspended in 500 μL of PBS and run on the flow cytometer immediately. Measurements were conducted on a BD FACSCanto II flow cytometer using FACSDiva software (version 6.1.3, BD Biosciences, San Diego, CA, USA). […] The calculations followed these formulas:MAFMDR1= 100 × (FMDR1 − F0)/FMDR1 MAFMRP= 100 × (FMRP − F0)/FMRP MAFBCRP= 100 × (FBCRP − F0)/FBCRP
(§3) • FMDR—MFI with MDR1 inhibitor (verapamil) • FMRP—MFI with MRP inhibitor (MK-571) • FBCRP—MFI with BCRP inhibitor (novobiocin) • F0—MFI without inhibitor
(§4) The theoretical range of the MAF values is between 0 and 100.

In series [6] the test system is MRP1/2 in MDA-MB-231 cells. The series can be described thus: MDR transporter activity assay, MRP in MDA-MB-231. It is filed as cell-based, human. The note with it: 24 h. As for the experimental part:
as §2, §3, §4

Series [7] deals with T4, BCRP in MDA-MB-231 cells (Homo sapiens, UniProt Q9UNQ0).
T4 construct: endogenous in cells; host or cells: MCF-7 and MDA-MB-231 cells
T4 sequence (Q9UNQ0 1-655): T2 sequence (Q9UNQ0 1-655)
The series can be described thus: MDR transporter activity assay, BCRP in MDA-MB-231. It is filed as cell-based. The note with it: 24 h. As for the experimental part:
as §2, §3, §4

Series [8] relates to MCF-7 cells. Details: method as in PMID 36345785. The conditions noted are these: MTT; cited from earlier work.
In series [9] the test system is MDA-MB-231 cells. Details: method as in PMID 36345785. The note with it: MTT; cited from earlier work.

T3 sequence (P08183 whole entry): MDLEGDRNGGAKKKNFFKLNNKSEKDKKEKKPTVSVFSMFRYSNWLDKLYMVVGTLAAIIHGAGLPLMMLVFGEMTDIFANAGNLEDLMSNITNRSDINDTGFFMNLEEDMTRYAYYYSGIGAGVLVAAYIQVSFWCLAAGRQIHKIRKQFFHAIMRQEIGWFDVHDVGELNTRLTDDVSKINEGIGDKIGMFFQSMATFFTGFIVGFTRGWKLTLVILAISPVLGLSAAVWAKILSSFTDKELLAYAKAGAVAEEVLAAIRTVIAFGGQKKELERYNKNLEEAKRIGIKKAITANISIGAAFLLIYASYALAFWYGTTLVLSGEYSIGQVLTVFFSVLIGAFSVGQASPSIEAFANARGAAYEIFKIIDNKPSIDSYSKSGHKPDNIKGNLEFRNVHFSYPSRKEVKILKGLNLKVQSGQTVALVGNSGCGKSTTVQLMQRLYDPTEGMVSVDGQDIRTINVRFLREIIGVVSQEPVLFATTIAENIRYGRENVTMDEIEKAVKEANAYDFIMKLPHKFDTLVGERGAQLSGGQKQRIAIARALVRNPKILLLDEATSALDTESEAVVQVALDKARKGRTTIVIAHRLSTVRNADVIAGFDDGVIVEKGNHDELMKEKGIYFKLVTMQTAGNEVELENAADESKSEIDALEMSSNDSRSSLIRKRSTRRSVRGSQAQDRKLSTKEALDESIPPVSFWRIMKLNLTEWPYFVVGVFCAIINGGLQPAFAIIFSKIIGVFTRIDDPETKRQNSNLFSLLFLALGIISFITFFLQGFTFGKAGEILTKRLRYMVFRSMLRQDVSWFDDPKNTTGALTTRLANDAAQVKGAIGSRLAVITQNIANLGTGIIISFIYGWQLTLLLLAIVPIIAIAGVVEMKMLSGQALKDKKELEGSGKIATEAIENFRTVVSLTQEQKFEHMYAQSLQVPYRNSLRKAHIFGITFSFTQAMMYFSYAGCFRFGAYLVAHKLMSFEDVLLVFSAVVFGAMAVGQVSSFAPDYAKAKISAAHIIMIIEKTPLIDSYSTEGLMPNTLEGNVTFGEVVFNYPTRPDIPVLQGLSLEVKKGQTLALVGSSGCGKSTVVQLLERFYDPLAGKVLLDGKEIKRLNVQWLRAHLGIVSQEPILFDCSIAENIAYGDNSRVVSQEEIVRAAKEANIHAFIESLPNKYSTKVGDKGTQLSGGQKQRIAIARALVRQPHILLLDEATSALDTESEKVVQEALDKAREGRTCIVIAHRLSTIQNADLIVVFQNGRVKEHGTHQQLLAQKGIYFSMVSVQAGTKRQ
T1 sequence (P08183 whole entry): as above

For the compound `O=C(Cc1cccc2ccccc12)NNC(=S)Nc1ccc(/N=N/c2ccccc2)cc1` [Compound 2], the IC50 is 42.7 µg/mL and 97.2 µM in [1]; 20.9 ± 0.59 µM in series [8]; 17.4 ± 0.93 µM in series [9]. Also, the “SIMCF-7 (selectivity index)” value in series [1] came to 4.65. Further, the “SIMDA-MB-231 (selectivity index)” value in series [1] amounted to 5.60. Moreover, the “MAF MDR1 (multidrug resistance activity factor)” value in [2] was 9.1. Further, the “MAF MRP” value in series [3] is 9.9; in [6] (MDA-MB-231, 10 µg/mL), 7.0; in series [6] (MDA-MB-231, 20 µg/mL), 1.8. The “MAF BCRP” value came out at 15.4 in series [4]; 4.9 in series [7] (MDA-MB-231, 10 µg/mL); 1.4 in [7] (MDA-MB-231, 20 µg/mL). The “MAF MDR1” value was found to be 13.3 in series [5] (MDA-MB-231, 10 µg/mL) and 11.1 in series [5] (MDA-MB-231, 20 µg/mL). The “IC50 MCF-7” value in [8] is recorded as 9.18 ± 0.26 µg/mL (≈ 20.9 µM). For the same compound, the “IC50 MDA-MB-231” value in series [9] was 7.64 ± 0.41 µg/mL (≈ 17.4 µM).
As to `O=C(NNC(=S)Nc1ccc(/N=N/c2ccccc2)cc1)c1ccccc1[N+](=O)[O-]` [Compound 3], the half-inhibitory concentration (IC50) in [1] is 40.5 µg/mL and 96.2 µM; in series [8], 18.2 ± 1.36 µM; in series [9] it was 24.9 ± 1.74 µM. For the same compound, the “SIMCF-7 (selectivity index)” value in series [1] came to 5.30. The “SIMDA-MB-231 (selectivity index)” value in [1] is given as 3.86. Further, in [2], the “MAF MDR1 (multidrug resistance activity factor)” value amounted to 5.7. In addition, the “MAF MRP” value is reported as 5.3 in series [3] and below 20 in [6] (MDA-MB-231, 20 µg/mL). The “MAF BCRP” value in [4] is reported as 7.0; in series [7] (MDA-MB-231, 20 µg/mL) it was below 20. The “MAF MDR1” value in series [5] (MDA-MB-231, 20 µg/mL) is listed as below 20. In addition, the “IC50 MCF-7” value in [8] was 7.67 ± 0.57 µg/mL (≈ 18.2 µM). Also, the “IC50 MDA-MB-231” value in series [9] is listed as 10.47 ± 0.73 µg/mL (≈ 24.9 µM).

As a reminder, the IC50 is the point on the concentration scale where inhibition reaches its midpoint.
